Laboratory results reported in the CATMoS acute toxicity set (Mansouri et al. 2021).

Experiment: GHS categories as the set defines them, by LD50: 1 up to 5, 2 up to 50, 3 up to 300, 4 up to 2000, 5 above 2000 mg/kg
Details: rat; in vivo; po

| Structure (SMILES) | GHS category |
| --- | --- |
| CC(C)C1=CC23CCC4C(C)(C(=O)N5CCOCC5)CCCC4(C)C2CC1C1C(=O)OC(=O)C13 (stereo unspecified) | 5 |
| Cc1cc(C)c(C=O)c(C)c1 | 5 |
| Cc1cccc(C)c1NC(=O)CN1CCN(CCCC(c2ccc(F)cc2)c2ccc(F)cc2)CC1 | 5 |
| CCCCCCCCOC(=O)C(C)C | 5 |
| O=C1CCCCCN1C(=O)NCCCCCCNC(=O)N1CCCCCC1=O | 5 |
| CCNC(=O)[C@@H]1CCCN1C(=O)[C@H](CCCN=C(N)N)NC(=O)[C@H](CC(C)C)NC(=O)[C@@H](COC(C)(C)C)NC(=O)[C@H](Cc1ccc(O)cc1)NC(=O)[C@H](CO)NC(=O)[C@H](Cc1c[nH]c2ccccc12)NC(=O)[C@H](Cc1cnc[nH]1)NC(=O)[C@@H]1CCC(=O)N1 | 4 |
| Nc1c(I)c(C(=O)Cl)c(I)c(C(=O)Cl)c1I | 5 |
| CC(CO)CO | 5 |
| O=S(=O)(O)c1ccc(Nc2nc(Nc3ccc(C=Cc4ccc(Nc5nc(Nc6ccc(S(=O)(=O)O)cc6)nc(N6CCOCC6)n5)cc4S(=O)(=O)O)c(S(=O)(=O)O)c3)nc(N3CCOCC3)n2)cc1 | 5 |
| CC(C)CCCCCCCOC(=O)CCCCCCCC(=O)OCCCCCCCC(C)C | 5 |
| CN1CC(c2ccn(C)n2)CC2c3cccc4[nH]cc(c34)CC21 (stereo unspecified) | 4 |
| C#CCN(C(C)=O)C(=O)Oc1cccc2c1OC(C)(C)O2 | 4 |
| Cc1cc(Cl)ccc1-n1c(C)nc2cccc(Cl)c2c1=O | 5 |
| CC=CC(=O)OC/C=C(\C)CCC=C(C)C | 5 |
| COP(=S)(OC)Oc1ccc(/N=N/c2ccc(Cl)cc2)cc1 | 4 |
| O=C1CC(N2C(=O)c3ccccc3C2=O)CC(=O)N1 | 5 |
| O=P(O)(O)c1ccccc1 | 5 |
| CCOc1c(N)c2c(c(OCC)c1OCC)C(C1c3c(cc4c(c3OC)OCO4)CCN1C)OC2=O (stereo unspecified) | 5 |
| CCCCOC(=O)c1ccccc1N=Nc1c(O)c(C(=O)Nc2ccc3[nH]c(=O)[nH]c3c2)cc2ccccc12 | 5 |
| O=S(=O)(O)c1ccc(/N=N/c2cc(S(=O)(=O)O)c3ccccc3c2O)c2ccccc12 | 5 |
| CCCOC(=O)C(C(=O)OCCC)=C1SC2C(S1)N(C)CCN2C (stereo unspecified) | 4 |

| Structure (SMILES) | GHS category |
| --- | --- |
| N#CC1(N)CC1 | 4 |
| CN(C)CC(=O)O | 4 |
| O=C1Cc2ccccc2O1 | 5 |
| CCOC(=O)C(=O)Nc1cc(OC)nc(C)n1 | 4 |
| CC(=O)Nc1ccc(C(C[N+](=O)[O-])Sc2ccc(C)cc2)cc1 (stereo unspecified) | 5 |
| CCOC(=O)C(Br)CC (stereo unspecified) | 4 |
| CCN(CC)CCN(CCN(CC)CC)n1cc(-c2ccc(Cl)cc2)c2cc(C)ccc21 | 4 |
| Brc1ccc(CNC2=NCCS2)cc1 | 3 |
| CC(C)CCCCCCCOP(=O)(Oc1ccccc1)Oc1ccccc1 | 5 |
| Fc1ccccc1C1c2ccccc2CCN1c1cccc(C(F)(F)F)c1 (stereo unspecified) | 4 |
| OCCOc1ccc(OCCO)cc1 | 5 |
| NC(=O)Oc1ccc(Cl)cc1C(=O)Oc1ccc(Cl)cc1Cl | 5 |
| O=C1c2c(Cl)c(Cl)c(Cl)c(Cl)c2C2=Nc3cccc4cccc(c34)N12 | 5 |
| CCOc1ccc(OC)cc1-c1nc(=O)c2cc(C(=O)O)ccc2[nH]1 | 4 |
| C[C@@H]1CC(C)(C)O[C@](Cn2cncn2)(c2cc3ccccc3o2)O1 | 4 |
| CCCCC1C=C(C)CC(C)O1 (stereo unspecified) | 5 |
| CCC=CCC=O | 5 |
| CC(C)COC(=O)Nc1nc(N2CC=CCC2)cc2nc(=O)on12 | 5 |
| COc1ccc(NC(=O)c2cc3ccccc3cc2O)cc1 | 5 |
| O=CCCc1ccccc1 | 5 |
| CC(C)CCCCCCCCOCCCNCCC#N | 5 |

| Structure (SMILES) | GHS category |
| --- | --- |
| CCC(C)(Oc1ccc(C2(c3ccc(OC(C)(CC)C(=O)O)cc3)CCCCC2)cc1)C(=O)O (stereo unspecified) | 5 |
| COC[C@H]1CO[C@@](Cn2ccnc2)(c2cc3ccccc3o2)O1 | 4 |
| Cc1ccc(S(=O)(=O)NC(=O)NN2CCCCCC2)cc1 | 5 |
| CCCCC(CC)COCOCC(CC)CCCC (stereo unspecified) | 5 |
| CCCCCCCCCCCCCCCCOC(=O)Oc1c(Cl)cc(C(=O)OCC)cc1Cl | 5 |
| Nc1ccc(N=Nc2ccc(N=Nc3c(S(=O)(=O)O)cc4cc(S(=O)(=O)O)c(N=Nc5ccc(N=Nc6ccc(N)cc6N)cc5)c(O)c4c3N)cc2)c(N)c1 | 5 |
| CCCCCCCCOC(=O)c1ccc(C(=O)OCCCCCCCC)c(C(=O)OCCCCCCCC)c1 | 5 |
| Oc1cc(O)c2c(c1)O[C@H](c1ccc(O)c(O)c1)[C@@H](O)C2 | 5 |
| O=C1Nc2ccccc2C1=O | 5 |
| CCOC(=O)N(C)C1CCCN(c2nc(N)c3cc(OC)c(OC)cc3n2)C1 (stereo unspecified) | 4 |
| OC[C@@H](O)[C@@H](O[C@@H]1O[C@H](CO)[C@H](O)[C@H](O)[C@H]1O)[C@H](O)[C@@H](O)CO | 5 |
| CC[N+](CC)(CC)C(C)OS(=O)(=O)C(F)(F)C(F)(F)C(F)(F)C(F)(F)F (stereo unspecified) | 5 |
| Fc1c(F)c(F)c(Cl)c(F)c1F | 5 |
| NC[C@H]1O[C@H](O[C@H]2[C@H](O)[C@@H](O[C@H]3O[C@H](CO)[C@@H](O)[C@H](N)[C@H]3O)[C@H](N)C[C@@H]2N)[C@H](N)[C@@H](O)[C@@H]1O | 5 |
| CCCC(=O)c1ccc2c(c1)oc(=O)n2C | 5 |
| O=C(O)CNC(c1ccccc1)c1ccc(F)cc1 (stereo unspecified) | 4 |
| CCCCOC(=O)c1ccccc1OC(N)=O | 5 |
| O=C(CCCN1CCC2(CC1)C(=O)NCN2c1ccccc1)c1ccc(F)cc1 | 4 |
| CNc1ccc([N+](=O)[O-])cc1 | 5 |
| CCCCCC1C(=O)CCC1CC(C)=O (stereo unspecified) | 5 |
| O=C(O)CCC(CC(=O)O)(C(=O)O)P(=O)(O)O (stereo unspecified) | 5 |

| Structure (SMILES) | GHS category |
| --- | --- |
| C=CC(=O)OCCCOc1ccc(C(=O)Oc2ccc(OC(=O)c3ccc(OCCCOC(=O)C=C)cc3)c(C)c2)cc1 | 5 |
| Cc1c(Cl)ccc(OC(C)C(O)=Nc2ccccc2)c1Cl (stereo unspecified) | 5 |
| FC(C(F)C(F)(F)C(F)(F)F)C(F)(F)F (stereo unspecified) | 5 |
| CCc1cc(Cc2cc(CC)cc(C(C)(C)C)c2O)c(O)c(C(C)(C)C)c1 | 5 |
| O=C(O)c1ccccc1C(=O)N1CCSC1 | 5 |
| Clc1cc(Cl)c(OCC#CI)cc1Cl | 5 |
| COc1ccc(N(CCCC(=O)O)C(=O)c2ccc(Cl)cc2)cc1 | 5 |
| C=CC=CC=CC=CC=CC=CC=CC | 5 |
| CC#Cc1cc(C)nc(Nc2ccccc2)n1 | 5 |
| COC1=C(C(=O)O)N2C(=O)[C@@H](NC(=O)[C@H](N)C3=CCC=CC3)[C@H]2SC1 | 5 |
| COc1ccccc1N1CCN(/C(=N\CC(C)C)Nc2ccc(Cl)c(Cl)c2)CC1 | 4 |
| O=S(=O)(O)c1ccccc1Nc1ccc(C(=C2C=CC(=Nc3ccccc3)C=C2)c2ccc(Nc3ccccc3)cc2)cc1 | 5 |
| CCN(CC)CCC#N | 4 |
| CCCCOC(=O)CC(C)C | 5 |
| CCOC(=O)C(=O)Nc1cc(OCCOCCOC)ncn1 | 4 |
| CCCCCC(O)CCO (stereo unspecified) | 5 |
| CC1CCN(c2nc3cc(Cl)ccc3o2)CCN1 (stereo unspecified) | 4 |
| O=C(Nc1cc(Cl)c(NC(=O)c2cc3ccccc3c(N=Nc3cc(Cl)ccc3Cl)c2O)cc1Cl)c1cc2ccccc2c(N=Nc2cc(Cl)ccc2Cl)c1O | 5 |
